Where a name gives a salt, the structure may show the parent alone.
Key:
HCT116 = assay: Inhibition of cancer cell proliferation (MTT); format: cell-based, human
U-87MG = assay: Inhibition of cancer cell proliferation (MTT); format: cell-based, human
How it was run: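 Absorbance at 535 nm of DMSO-dissolved formazan (2 h MTT) gives viability versus 0.08% DMSO-treated cells, and GI50 is derived from eight concentrations between 0.004 and 10 uM. Exposure lasts 72 h at 37 °C, 5% CO2, using 3000 cells/well in 10% FBS medium ([…] for NCI-H23, otherwise DMEM).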

NCI-H23 = assay: Inhibition of cancer cell proliferation (MTT); format: cell-based, human
How it was run: (§1)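 72 h MTT proliferation assay; cells seeded at 3000/well (A549, SK-N-SH, SH-SY5Y, NCI-H23) and attached 16 h at 37 °C, then treated at 0.004–10 uM with 0.08% DMSO control. Absorbance at 535 nm read after 2 h MTT; GI50 from viability relative to untreated control.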

A549 = assay: Inhibition of cancer cell proliferation (MTT); format: cell-based, human
How it was run: as §1

T98G = assay: Inhibition of cancer cell proliferation (MTT); format: cell-based, human
How it was run: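 Plate 3000 cells/well and let them adhere for 16 h. Add compound (0.004, 0.013, 0.04, 0.12, 0.37, 1.1, 3.3, 10 uM; 0.08% DMSO) and culture for 72 h. Add MTT for 2 h, dissolve formazan in DMSO, read at 535 nm, and fit GI50.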

CDK1/cyclinB = target: T1, CDK1/cyclinB (Homo sapiens, UniProt P06493); assay: Inhibition of CDK enzyme activity (ADP-Glo kinase assay); format: biochemical; conditions: 10 uM ATP, histone H1 substrate
T1 construct: purchased Merck Millipore
T1 sequence (P06493 whole entry): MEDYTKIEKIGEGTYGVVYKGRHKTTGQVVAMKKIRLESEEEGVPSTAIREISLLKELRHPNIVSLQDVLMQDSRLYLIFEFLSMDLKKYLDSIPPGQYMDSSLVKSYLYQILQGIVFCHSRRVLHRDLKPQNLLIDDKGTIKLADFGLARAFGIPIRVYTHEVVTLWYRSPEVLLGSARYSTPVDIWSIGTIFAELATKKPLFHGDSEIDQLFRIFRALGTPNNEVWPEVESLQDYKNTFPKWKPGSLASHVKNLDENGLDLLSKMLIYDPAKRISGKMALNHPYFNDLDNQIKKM
T1 sequence (P14635 whole entry partner): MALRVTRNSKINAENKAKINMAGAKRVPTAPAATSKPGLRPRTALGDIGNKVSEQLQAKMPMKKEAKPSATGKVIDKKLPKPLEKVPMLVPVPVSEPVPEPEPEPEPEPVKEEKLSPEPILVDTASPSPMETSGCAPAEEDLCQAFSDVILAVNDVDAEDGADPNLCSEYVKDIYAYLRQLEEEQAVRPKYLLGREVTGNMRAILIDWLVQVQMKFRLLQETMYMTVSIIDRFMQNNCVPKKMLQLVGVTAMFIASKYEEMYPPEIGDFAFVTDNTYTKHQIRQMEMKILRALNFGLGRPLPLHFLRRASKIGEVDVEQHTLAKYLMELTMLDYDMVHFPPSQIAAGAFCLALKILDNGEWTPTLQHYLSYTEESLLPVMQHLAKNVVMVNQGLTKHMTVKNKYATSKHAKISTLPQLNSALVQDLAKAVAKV
Method: (§2) Test compounds were prepared by dissolving the compounds obtained in the above Examples in dimethylsulfoxide (DMSO) at a concentration of 10 mM. The test compounds were diluted to 200 nM, 50 nM, […], 3.13 nM, 0.78 nM, and 0.2 nM and used in an enzyme reaction.
(§3) CDK enzyme reaction was conducted in a buffer containing 50 mM Tris-HCl (pH 7.5), 10 mM MgCl2, 1 mM EGTA, 1 mM EDTA, and 2 mM DTT. CDK1/cyclinB, CDK2/cylcinE, CDK5/p25, and CDK6/cyclinD3 enzymes commercially available from Merck Millipore were used for CDK1, CDK2, CDK5, and CDK6 enzymes, respectively, and CDK4/cyclinD1 enzyme commercially available from Signalchem (US) was used for CDK4. For CDK1, a reaction proceeded by adding 10 nM CDK1/cyclinB and 0.125 mg/ml histone H1 (Merck Millipore) substrate to the buffer and then adding 10 uM ATP thereto. For CDK2, a reaction was proceeded by adding 10 nM CDK2/cyclinE and 0.125 mg/ml histone H1 substrate to the buffer and then adding 10 uM ATP thereto. For CDK5, a reaction was proceeded by adding 10 nM CDK5/p25 and 0.125 mg/ml histone H1 substrate to the buffer and then adding 10 uM ATP thereto. For CDK4, a reaction was proceeded by adding 20 nM CDK4/cyclinD1 and 0.125 mg/ml Rb protein (Merck Millipore) to the buffer and then adding 10 uM ATP thereto. For CDK6, a reaction was proceeded by adding 50 nM CDK6/cyclinD3 and 0.125 mg/ml histone H1 substrate to the buffer and then adding 10 uM ATP thereto. Each enzyme reaction was incubated at 30° C. for 60 min. Then, the amount of ADP produced was measured using Victor X4 instrument (Perkin Elmer) after generating luminescence using ADP-Glo kinase assay kit (Promega, US). An inhibition effect on each enzyme was represented as a percentage of the luminescence value in the presence of the test compounds relative to the luminescence value without the test compounds. IC50 (nM) is the concentration of the compound to inhibit 50% of the enzyme activity.

CDK4/cyclinD1 = target: T2, CDK4/cyclinD1 (Homo sapiens, UniProt P11802); assay: as above; format: biochemical; conditions: 10 uM ATP, Rb protein substrate; read-out: IC50 CDK4/cyclinD
T2 construct: purchased Signalchem (US)
T2 sequence (P11802 whole entry): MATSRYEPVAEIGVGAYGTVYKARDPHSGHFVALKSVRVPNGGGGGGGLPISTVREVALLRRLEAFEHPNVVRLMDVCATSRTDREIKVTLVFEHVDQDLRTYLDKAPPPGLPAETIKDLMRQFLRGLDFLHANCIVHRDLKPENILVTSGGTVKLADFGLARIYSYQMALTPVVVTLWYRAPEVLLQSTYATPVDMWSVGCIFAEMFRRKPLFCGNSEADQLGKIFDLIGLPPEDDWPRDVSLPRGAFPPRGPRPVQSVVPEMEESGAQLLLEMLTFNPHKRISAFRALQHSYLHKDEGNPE
T2 sequence (P24385 whole entry partner): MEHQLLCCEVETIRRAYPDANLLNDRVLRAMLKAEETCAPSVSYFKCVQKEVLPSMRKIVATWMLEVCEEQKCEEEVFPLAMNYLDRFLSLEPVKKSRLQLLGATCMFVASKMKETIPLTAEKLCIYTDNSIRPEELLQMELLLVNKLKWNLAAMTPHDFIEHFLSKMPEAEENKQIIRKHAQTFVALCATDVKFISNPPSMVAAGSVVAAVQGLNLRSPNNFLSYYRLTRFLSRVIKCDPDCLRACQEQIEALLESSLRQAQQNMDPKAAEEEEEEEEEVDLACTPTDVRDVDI
Method: as §2, §3

CDK6/cyclinD3 = target: T3, CDK6/cyclinD3 (Homo sapiens, UniProt Q00534); assay: as above; format: biochemical; conditions: 10 uM ATP, histone H1 substrate; read-out: IC50 CDK6/cyclinD
T3 construct: purchased Merck Millipore
T3 sequence (Q00534 whole entry): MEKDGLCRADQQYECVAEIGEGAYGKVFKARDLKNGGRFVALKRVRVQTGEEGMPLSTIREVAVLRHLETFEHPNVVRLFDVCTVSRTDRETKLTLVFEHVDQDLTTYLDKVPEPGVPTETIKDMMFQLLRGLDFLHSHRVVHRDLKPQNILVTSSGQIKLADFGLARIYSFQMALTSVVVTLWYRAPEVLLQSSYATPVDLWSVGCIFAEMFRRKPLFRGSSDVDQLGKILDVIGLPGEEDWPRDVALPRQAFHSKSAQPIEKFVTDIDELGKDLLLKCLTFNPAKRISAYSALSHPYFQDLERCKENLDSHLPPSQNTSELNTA
T3 sequence (P30281 whole entry partner): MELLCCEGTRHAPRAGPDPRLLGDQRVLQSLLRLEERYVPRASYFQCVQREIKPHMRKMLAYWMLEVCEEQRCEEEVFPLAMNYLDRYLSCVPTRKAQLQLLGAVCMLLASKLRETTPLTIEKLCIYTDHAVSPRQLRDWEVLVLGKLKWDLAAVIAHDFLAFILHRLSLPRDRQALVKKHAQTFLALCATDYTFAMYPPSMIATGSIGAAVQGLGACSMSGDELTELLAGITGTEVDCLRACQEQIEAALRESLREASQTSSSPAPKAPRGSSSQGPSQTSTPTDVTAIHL
Method: as §2, §3

CDK2/cyclinE = target: T4, CDK2/cyclinE (Homo sapiens, UniProt P24941); assay: as above; format: biochemical; conditions: 10 uM ATP, histone H1 substrate
T4 construct: purchased Merck Millipore
Method: as §2, §3

CDK5/p25 = target: T5, CDK5/p25 (Homo sapiens, UniProt Q00535); assay: as above; format: biochemical; conditions: 10 uM ATP, histone H1 substrate
T5 construct: purchased Merck Millipore
T5 sequence (Q00535 whole entry): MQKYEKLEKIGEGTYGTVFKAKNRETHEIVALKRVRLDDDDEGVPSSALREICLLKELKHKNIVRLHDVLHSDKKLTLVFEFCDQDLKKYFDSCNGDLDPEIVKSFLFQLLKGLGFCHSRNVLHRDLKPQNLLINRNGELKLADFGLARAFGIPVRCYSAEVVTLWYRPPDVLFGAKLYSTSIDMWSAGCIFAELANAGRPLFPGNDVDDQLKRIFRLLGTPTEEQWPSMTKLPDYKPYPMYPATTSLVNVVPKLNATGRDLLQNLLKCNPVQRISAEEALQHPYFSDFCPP
T5 sequence (Q15078 99-307 partner limits assumed): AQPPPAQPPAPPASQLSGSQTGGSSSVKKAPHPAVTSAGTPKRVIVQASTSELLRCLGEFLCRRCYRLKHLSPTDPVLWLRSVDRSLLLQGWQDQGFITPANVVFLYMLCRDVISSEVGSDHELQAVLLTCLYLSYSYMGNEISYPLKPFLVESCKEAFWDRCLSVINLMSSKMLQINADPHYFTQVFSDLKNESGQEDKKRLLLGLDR
Method: as §2, §3

Compound	GI50 (HCT116; Homo sapiens, HCT-116, 72 h)	GI50 (U-87MG; Homo sapiens, U-87 MG, 72 h)	GI50 (NCI-H23; Homo sapiens, NCI-H23, 72 h)	GI50 (A549; Homo sapiens, A549, 72 h)	GI50 (T98G; Homo sapiens, T98G, 72 h)	IC50 (CDK1/cyclinB)	IC50 (CDK4/cyclinD1)	IC50 (CDK6/cyclinD3)	IC50 (CDK2/cyclinE)	IC50 (CDK5/p25)	GI50 (HCT116; 72 hrs)	GI50 (U-87MG; 72 hrs)	GI50 (NCI-H23; 72 hrs)	GI50 (A549; 72 hrs)	GI50 (T98G; 72 hrs)
Nc1nc(-c2nc(-c3ccnc(N)c3F)ccc2O)cc(C2CCNCC2)n1 [Example 33, 2′-amino-6-(2-amino-6-(piperidin-4-yl)pyrimidin-4-yl)-3′-fluoro-[2,4′-bipyridin]-5-ol]	50 nM	150 nM	1710 nM	190 nM	260 nM	17.1 nM	39.3 nM	240 nM	3.7 nM	9.89 nM	–	–	–	–	–
CN1CCN(c2cc(-c3nc(-c4ccnc(N)c4F)ccc3O)nc(N)n2)CC1 [Example 53, 2′-amino-6-(2-amino-6-(4-methylpiperazin-1-yl)pyrimidin-4-yl)-3′-fluoro-[2,4′-bipyridin]-5-ol]	10 nM	30 nM	40 nM	20 nM	–	4 nM	> 200 nM	86.8 nM	10.8 nM	2.8 nM	–	–	–	–	–
CN(C)c1cc(-c2nc(-c3ccnc(N)c3F)ccc2O)nc(N)n1 [Example 52, 2′-amino-6-(2-amino-6-(dimethylamino)pyrimidin-4-yl)-3′-fluoro-[2,4′-bipyridin]-5-ol]	10 nM	–	30 nM	20 nM	–	0.7 nM	63.7 nM	59.6 nM	14.6 nM	1.9 nM	–	–	–	–	–
CC(C)c1cc(-c2nc(-c3ccnc(N)c3F)ccc2O)nc(N)n1 [Example 31, 2′-amino-6-(2-amino-6-isopropylpyrimidin-4-yl)-3′-fluoro-[2,4′-bipyridin]-5-ol]	30 nM	–	100 nM	180 nM	–	2.3 nM	35.9 nM	61.5 nM	0.59 nM	3.13 nM	–	–	–	–	–
CC(C)c1cnc(N)nc1-c1nc(-c2ccnc(N)c2F)ccc1O [Example 104]	–	–	–	–	–	1.3 nM	15.2 nM	54.1 nM	1.6 nM	0.8 nM	30 nM	70 nM	80 nM	80 nM	50 nM
Nc1nc(-c2nc(-c3ccnc(N)c3F)ccc2O)cc(N2CCOCC2)n1 [Example 51, 2′-amino-6-(2-amino-6-morpholinopyrimidin-4-yl)-3′-fluoro-[2,4′-bipyridin]-5-ol]	3 nM	10 nM	10 nM	10 nM	10 nM	1 nM	81.3 nM	35.8 nM	4.5 nM	2.8 nM	–	–	–	–	–
CCCN1CCC(c2cc(-c3nc(-c4ccnc(N)c4F)ccc3O)nc(N)n2)CC1 [Example 36, 2′-amino-6-(2-amino-6-(1-propylpiperidin-4-yl)pyrimidin-4-yl)-3′-fluoro-[2,4′-bipyridin]-5-ol]	–	10 nM	50 nM	20 nM	20 nM	–	–	–	–	–	10 nM	–	–	–	–
CCCN1CCCC(c2nc(N)nc(-c3nc(-c4ccnc(N)c4F)ccc3O)c2C)C1 (centres unmarked) [Example 98, 2′-amino-6-(2-amino-5-methyl-6-(1-propylpiperidin-3-yl)pyrimidin-4-yl)-3′-fluoro-[2,4′-bipyridin]-5-ol 4hydrochloride]	–	–	–	–	–	–	–	–	–	–	890 nM	970 nM	2060 nM	1300 nM	1750 nM
CCCc1cnc(N)nc1-c1nc(-c2ccnc(N)c2F)ccc1O [Example 103, 2′-amino-6-(2-amino-5-propylpyrimidin-4-yl)-3′-fluoro-[2,4′-bipyridin]-5-ol 3hydrochloride]	–	–	–	–	–	–	–	–	–	–	10 nM	10 nM	20 nM	10 nM	10 nM
CCN1CCCC(c2cc(-c3nc(-c4ccnc(N)c4F)ccc3O)nc(N)n2)C1 (centres unmarked) [Example 90, 2′-amino-6-(2-amino-6-(1-ethylpiperidin-3-yl)pyrimidin-4-yl)-3′-fluoro-[2,4′-bipyridin]-5-ol 4hydrochloride]	–	–	–	–	–	–	–	–	–	–	40 nM	100 nM	390 nM	110 nM	190 nM
CC(C)N1CCCC(c2cc(-c3nc(-c4ccnc(N)c4F)ccc3O)nc(N)n2)C1 (centres unmarked) [Example 41, 2′-amino-6-(2-amino-6-(1-isopropylpiperidin-3-yl)pyrimidin-4-yl)-3′-fluoro-[2,4′-bipyridin]-5-ol]	20 nM	40 nM	70 nM	40 nM	110 nM	–	–	–	–	–	–	–	–	–	–
CCc1c(-c2nc(-c3ccnc(N)c3F)ccc2O)nc(N)nc1C1CCN(C(C)C)CC1 [Example 105]	–	–	–	–	–	–	–	–	–	–	30 nM	40 nM	90 nM	60 nM	60 nM
Cc1cc(-c2nc(-c3ccnc(N)c3F)ccc2O)nc(N)n1 [Example 24, 2′-amino-6-(2-amino-6-methylpyrimidin-4-yl)-3′-fluoro-[2,4′-bipyridin]-5-ol]	20 nM	–	–	–	–	0.6 nM	342 nM	33.8 nM	0.9 nM	0.7 nM	–	–	–	–	–
CCc1c(-c2nc(-c3ccnc(N)c3F)ccc2O)nc(N)nc1C1CCN(C(C)C)CC1 [Example 49, 2′-amino-6-(2-amino-5-ethyl-6-(1-isopropylpiperidin-4-yl)pyrimidin-4-yl)-3′-fluoro-[2,4′-bipyridin]-5-ol]	20 nM	30 nM	70 nM	50 nM	50 nM	–	–	–	–	–	–	–	–	–	–
CC(C)N1CCC(c2cc(-c3nc(-c4ccnc(N)c4F)ccc3O)nc(N)n2)CC1 [Example 88, 2′-amino-6-(2-amino-6-(1-isopropylpiperidin-4-yl)pyrimidin-4-yl)-3′-fluoro-[2,4′-bipyridin]-5-ol 4hydrochloride]	–	–	–	–	–	–	–	–	–	–	40 nM	10 nM	40 nM	20 nM	20 nM

— patent publication US20200190062A1, “HETEROCYCLIC COMPOUND AND PHARMACEUTICAL COMPOSITION COMPRISING SAME” (BEYONDBIO INC., priority 2015, published 2020)
